The test system of assay [1] is Panc-1 and MIA PaCa-2 cells. The experiment in a line: Cell viability, Cell Counting Kit-8 (CCK8). The following applies: 10 μM BafA1 in combination with 10 μM gemcitabine, 48 hours, compared to gemcitabine alone. The assay is classed as cell-based, human. On the procedure:
5×10^3 pancreatic cancer cells per well (Panc-1, MIA PaCa-2, or COLO 357) were plated in 96-well plates and grown at 37° C. for 24 hours. Cells were then transfected with 20 nM mimic control or miR-29a mimic using DharmaFECT® 1 for 24 hours. Transfection media was then removed and replaced with complete media, and cells were allowed to recover for 24 hours and subsequently treated with varying concentrations of gemcitabine (0 μM, 0.1 μM, 1 μM, 10 μM, 100 μM). Cell viability was measured at 72 hours post-gemcitabine treatment by adding 10 μl Cell Counting Kit-8 (CCK8) reagent (Dojindo, CK04) and absorbance was measured at 450 nm. For cell viability with Chloroquine (CQ) and BafilomycinA1 (BafA1) treatment, cells were treated with 25 μM CQ (Sigma Aldrich, C6628) or 10 μM BafA1 (Sigma Aldrich, B1793) in combination with 10 μM gemcitabine for 48 hours, and viability was measured using CCK8 kit as described above.
Background: Formazan colour is commonly taken as a measure of viable cells.

In the next assay the test system is Panc-1 cells. The experiment in a line: Autophagy flux immunoblotting (LC3B, p62). The assay is classed as cell-based, human. Conditions: 25 μM CQ added to control mimic cells. A general note: A western blot detects proteins with antibodies after separation by electrophoresis.

Two compounds from patent publication US10801025B2, “MicroRNA therapy for pancreatic cancer” (Indiana University Research and Technology Corporation, priority 2016, dated 2020) can be followed below.

Method for Panc-1 cells: Cells were then transfected with 10 nM control or miR-29a mimics using DharmaFECT®. 24 hours post-transfection, cells were treated with 25 μM CQ in complete media for 3-6 hours. Subsequently, total proteins were harvested and subjected to western blot analysis as described above.

`CO/C1=C\C(C)=C\[C@@H](C)[C@@H](O)[C@@H](C)C/C(C)=C/C=C/[C@H](OC)[C@@H]([C@@H](C)[C@@H](O)[C@H](C)[C@@]2(O)C[C@@H](O)[C@H](C)[C@@H](C(C)C)O2)OC1=O` [BafA1, BafilomycinA1]: the cancer cell viability entry in assay [1] is given as “decreased cancer cell viability”.

For `CCN(CC)CCCC(C)Nc1ccnc2cc(Cl)ccc12` (centres unmarked) [CQ, Chloroquine], in the assay with Panc-1 cells, the “LC3BI and II and p62 accumulation” value is on record as “robust net increase”.
